Experiment [1] has as its target T1, human somatostatin receptor subtype 2 (Homo sapiens, UniProt P30874).
T1 construct: expressed in transfected cells
Kind of experiment: cAMP assay for SST2R (inhibition of cAMP in CHO-K1 cells). The note with it: Table B; inhibition of cAMP via human SST2 receptor; read-out: SST2 potency. The class given is cell-based. The procedure, abridged: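 CHO-K1 cells stably expressing human SSTR2, plated 4 days prior, treated 20 min at 37° C with 1.6 μM NKH477 plus compound dilutions in HBSS/HEPES pH 7.4/0.1% BSA/0.2 mM IBMX. Lysate cAMP measured by HTRF against standard curve; EC50 from concentration-response.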
For orientation: Changes in cAMP serve as a functional read-out for many G protein-coupled receptors.

The target of experiment [2] is T2, human somatostatin receptor subtype 5 (Homo sapiens, UniProt P35346).
T2 construct: expressed in transfected cells
T2 sequence (P35346 whole entry): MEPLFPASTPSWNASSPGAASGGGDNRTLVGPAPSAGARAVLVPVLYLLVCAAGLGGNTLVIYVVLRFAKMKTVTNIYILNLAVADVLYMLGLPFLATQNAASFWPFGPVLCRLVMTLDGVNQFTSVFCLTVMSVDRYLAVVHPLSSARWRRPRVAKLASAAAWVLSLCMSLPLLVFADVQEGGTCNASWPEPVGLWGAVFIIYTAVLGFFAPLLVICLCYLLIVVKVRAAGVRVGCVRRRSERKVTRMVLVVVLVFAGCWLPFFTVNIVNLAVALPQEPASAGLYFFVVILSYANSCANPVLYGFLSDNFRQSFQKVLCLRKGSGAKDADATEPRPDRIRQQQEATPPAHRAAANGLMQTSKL
Kind of experiment: cAMP assay for SST5R (inhibition of cAMP in CHO-K1 cells). The class given is cell-based. Particulars: for EC50: inhibition of cAMP via human SST5 receptor, read-out: SST5 potency. The procedure, abridged: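 CHO-K1 cells stably expressing human SSTR5 were treated 20 min at 37 °C with compounds plus 1.6 μM NKH477 in HBSS, 0.5 mM HEPES pH 7.4, 0.1% BSA, 0.2 mM IBMX. Lysate cAMP measured by HTRF against a standard curve; EC50 from cAMP-versus-concentration plots.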

The mark [3] stands for this setting: Table B, class symbols, SST5 receptor over SST2 receptor.
Where [4] appears, read: Table B, numeric values for comparison compounds.

Like-named read-outs stand apart in the source and are kept apart here.

T1 sequence (P30874 whole entry): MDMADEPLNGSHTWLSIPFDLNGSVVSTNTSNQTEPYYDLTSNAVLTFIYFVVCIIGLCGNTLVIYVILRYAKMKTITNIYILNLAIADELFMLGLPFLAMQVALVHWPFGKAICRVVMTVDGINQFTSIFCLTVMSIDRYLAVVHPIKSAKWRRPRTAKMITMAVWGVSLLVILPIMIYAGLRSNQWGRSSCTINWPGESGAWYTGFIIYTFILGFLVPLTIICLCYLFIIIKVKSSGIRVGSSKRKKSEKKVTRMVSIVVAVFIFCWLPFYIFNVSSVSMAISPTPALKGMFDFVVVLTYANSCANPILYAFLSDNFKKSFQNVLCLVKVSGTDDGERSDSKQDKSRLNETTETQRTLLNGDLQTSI

Turning to `Cc1cccc2[nH]c(-c3cncc(C(=O)N4CCC[C@H]4C(F)(F)F)c3N3CC[C@](C)(N)C3)nc12` [2-41, (3S)-3-methyl-1-[3-(4-methyl-1H-1,3-benzodiazol-2-yl)-5-[(2S)-2-(trifluoromethyl)pyrrolidine-1-carbonyl]pyridin-4-yl]pyrrolidin-3-amine], the EC50 is 100 to 1000 nM in experiment [1], under 10 nM in experiment [2] (Table A) and under 10 nM in experiment [2] (Table B). Besides, in experiment [2] (setting [3]), the “Fold selectivity for SST5 vs SST2” value is “+ (+=10 to 99)”.

Take `Cc1cccc2[nH]c(-c3cncc(C(=O)N4CCC(C5CC5)C4)c3N3CC[C@](C)(N)C3)nc12` (stereo partly drawn) [2-42, (3S)-1-[3-(3-cyclopropylpyrrolidine-1-carbonyl)-5-(4-methyl-1H-1,3-benzodiazol-2-yl)pyridin-4-yl]-3-methylpyrrolidin-3-amine]: the EC50 in experiment [1] was 100 to 1000 nM; in experiment [2] (Table A), under 10 nM; in experiment [2] (Table B), under 10 nM. Moreover, the “Fold selectivity for SST5 vs SST2” value in experiment [2] (setting [3]) is reported as “++ (++=100 to 499)”.

Turning to `Cc1cccc2[nH]c(-c3cncc(C(=O)N4CCCC4C4CC4)c3N3CC[C@](C)(N)C3)nc12` (stereo partly drawn) [2-43, (3S)-1-[3-(2-cyclopropylpyrrolidine-1-carbonyl)-5-(4-methyl-1H-1,3-benzodiazol-2-yl)pyridin-4-yl]-3-methylpyrrolidin-3-amine], the EC50 is 10 to 100 nM in experiment [1], under 10 nM in experiment [2] (Table A) and under 10 nM in experiment [2] (Table B). In addition, in experiment [2] (setting [3]), the “Fold selectivity for SST5 vs SST2” value is “+ (+=10 to 99)”.

Consider `C[C@]1(N)CCN(c2c(C(=O)N3C4CC5CC(C4)CC3C5)cncc2-c2nc3cccc(Cl)c3[nH]2)C1` [2-45, (3S)-1-(3-{2-azatricyclo[3.3.1.1^3,7]decane-2-carbonyl}-5-(7-chloro-1H-1,3-benzodiazol-2-yl)pyridin-4-yl)-3-methylpyrrolidin-3-amine], for which the EC50 was 100 to 1000 nM in experiment [1], under 10 nM in experiment [2] (Table A) and under 10 nM in experiment [2] (Table B). Moreover, the “Fold selectivity for SST5 vs SST2” value in experiment [2] (setting [3]) is given as “++ (++=100 to 499)”.

With `C[C@]1(N)CCN(c2c(C(=O)NC3CCCCC3)ccnc2-c2cc(F)cc(F)c2)C1` [3-2, 3-[(3S)-3-amino-3-methylpyrrolidin-1-yl]-N-cyclohexyl-2-(3,5-difluorophenyl)pyridine-4-carboxamide], the EC50 in experiment [1] was over 1000 nM; in experiment [2] (Table A) it was under 10 nM; in experiment [2] (Table B) it was under 10 nM. Besides, the “Fold selectivity for SST5 vs SST2” value in experiment [2] (setting [3]) is “+++ (+++=>500)”.

`C[C@]1(N)CCN(c2c(C(=O)NC3CCCCCC3)ccnc2-c2cc(F)cc(F)c2)C1` [3-6, 3-[(3S)-3-amino-3-methylpyrrolidin-1-yl]-N-cycloheptyl-2-(3,5-difluorophenyl)pyridine-4-carboxamide]: the EC50 is over 1000 nM in experiment [1], under 10 nM in experiment [2] (Table A) and under 10 nM in experiment [2] (Table B). For the same compound, in experiment [2] (setting [3]), the “Fold selectivity for SST5 vs SST2” value is “+++ (+++=>500)”.

As to `C[C@H](NC(=O)c1ncc(Cl)c(-c2cc(F)cc(F)c2)c1N1CC[C@](C)(N)C1)C1CC1` [4-1, 3-[(3S)-3-amino-3-methylpyrrolidin-1-yl]-5-chloro-N-[(1S)-1-cyclopropylethyl]-4-(3,5-difluorophenyl)pyridine-2-carboxamide], the EC50 in experiment [1] is over 1000 nM; in experiment [2] (Table A), under 10 nM; in experiment [2] (Table B) it was under 10 nM. The “Fold selectivity for SST5 vs SST2” value in experiment [2] (setting [3]) is on record as “+++ (+++=>500)”.

`Cc1cc(C)cc(NC(=O)c2cncc(-c3cc(C)cc(C)c3)c2N2CCC(CN)C2)c1` (stereo not shown) [4-(3-(aminomethyl)pyrrolidin-1-yl)-N,5-bis(3,5-dimethylphenyl)nicotinamide, reference compound]: the EC50 in experiment [1] and in experiment [2] (Table B) was under 10 nM each time. Further, the “Fold selectivity for SST5 vs SST2” value in experiment [2] (setting [4]) is 0.084.

Regarding `Cc1cc(C)cc(-c2cncc(NC(=O)c3ccc(F)c(Cl)c3)c2N2CCC(CN)C2)c1` (stereo not shown) [N-(4-(3-(aminomethyl)pyrrolidin-1-yl)-5-(3,5-dimethylphenyl)pyridin-3-yl)-3-chloro-4-fluorobenzamide, reference compound], the EC50 in experiment [1] is under 10 nM; in experiment [2] (Table B) it was over 1000 nM. Moreover, the “Fold selectivity for SST5 vs SST2” value in experiment [2] (setting [4]) came to 0.0055.

(Values after patent publication US12600709B2, “Nonpeptide somatostatin type 5 receptor agonists and uses thereof” (Crinetics Pharmaceuticals, Inc., priority 2019, dated 2026).)
